System: Rattus norvegicus
Test: Hepatobiliary metabolism in UGT1A1-deficient Gunn rat measured as biliary excretion at 0.25 mg, iv within 240 mins
Assay type: ADME, organism-based, Bile
Details: in vivo, 4 h

Activity: 93%
SMILES: CCC1=C(C)C(=O)N/C1=C\c1[nH]c(C#Cc2[nH]c(/C=C3/NC(=O)C(C)=C3CC)c(C)c2CCC(=O)O)c(CCC(=O)O)c1C
